# Results reported in ChEMBL document CHEMBL5291721, “A preclinical secondary pharmacology resource illuminates target-adverse drug reaction associations of marketed drugs” (Nat Commun, 2023).
# Key:
# [1] = biological target: T1, Alpha-1A adrenergic receptor (Homo sapiens, UniProt P35348); assay type: functional, cell-based
# T1 sequence (P35348 whole entry): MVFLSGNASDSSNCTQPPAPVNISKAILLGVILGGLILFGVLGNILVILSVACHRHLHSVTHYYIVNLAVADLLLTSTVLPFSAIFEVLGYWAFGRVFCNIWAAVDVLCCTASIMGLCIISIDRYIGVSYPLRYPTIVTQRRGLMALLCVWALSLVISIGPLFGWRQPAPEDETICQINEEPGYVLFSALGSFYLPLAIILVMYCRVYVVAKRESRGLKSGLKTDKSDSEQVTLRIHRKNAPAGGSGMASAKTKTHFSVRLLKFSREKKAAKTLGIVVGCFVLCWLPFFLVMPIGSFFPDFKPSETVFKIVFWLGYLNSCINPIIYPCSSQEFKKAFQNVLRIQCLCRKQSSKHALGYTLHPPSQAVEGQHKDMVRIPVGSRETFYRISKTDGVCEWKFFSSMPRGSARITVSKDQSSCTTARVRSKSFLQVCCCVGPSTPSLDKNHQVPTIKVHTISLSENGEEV
# [2] = biological target: Vascular endothelial growth factor receptor 2 (Homo sapiens, UniProt P35968); assay type: functional
# [3] = biological target: Sodium-dependent serotonin transporter (Homo sapiens, UniProt P31645)
# [4] = biological target: cGMP-inhibited 3',5'-cyclic phosphodiesterase 3A (Homo sapiens, UniProt Q14432); assay type: functional
# Note: assay procedure not described here.
# Sodium-dependent serotonin transporter, sequence (P31645 whole entry): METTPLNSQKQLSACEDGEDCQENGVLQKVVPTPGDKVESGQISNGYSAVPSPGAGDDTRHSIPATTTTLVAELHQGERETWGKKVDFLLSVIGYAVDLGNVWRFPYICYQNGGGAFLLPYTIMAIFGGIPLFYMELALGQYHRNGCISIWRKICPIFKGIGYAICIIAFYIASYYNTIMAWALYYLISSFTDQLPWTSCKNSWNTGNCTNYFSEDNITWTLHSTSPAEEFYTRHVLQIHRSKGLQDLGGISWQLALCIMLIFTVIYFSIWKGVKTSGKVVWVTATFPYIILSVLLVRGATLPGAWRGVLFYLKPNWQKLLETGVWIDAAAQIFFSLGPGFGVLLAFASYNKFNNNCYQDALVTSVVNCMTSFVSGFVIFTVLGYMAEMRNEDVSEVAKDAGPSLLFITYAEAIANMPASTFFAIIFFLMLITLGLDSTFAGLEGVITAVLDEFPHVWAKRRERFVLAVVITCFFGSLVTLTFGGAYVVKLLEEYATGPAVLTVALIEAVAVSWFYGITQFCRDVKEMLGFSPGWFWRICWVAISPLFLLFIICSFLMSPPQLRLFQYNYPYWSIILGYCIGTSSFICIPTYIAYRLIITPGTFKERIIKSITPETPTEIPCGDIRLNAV
# Vascular endothelial growth factor receptor 2, sequence (P35968 whole entry): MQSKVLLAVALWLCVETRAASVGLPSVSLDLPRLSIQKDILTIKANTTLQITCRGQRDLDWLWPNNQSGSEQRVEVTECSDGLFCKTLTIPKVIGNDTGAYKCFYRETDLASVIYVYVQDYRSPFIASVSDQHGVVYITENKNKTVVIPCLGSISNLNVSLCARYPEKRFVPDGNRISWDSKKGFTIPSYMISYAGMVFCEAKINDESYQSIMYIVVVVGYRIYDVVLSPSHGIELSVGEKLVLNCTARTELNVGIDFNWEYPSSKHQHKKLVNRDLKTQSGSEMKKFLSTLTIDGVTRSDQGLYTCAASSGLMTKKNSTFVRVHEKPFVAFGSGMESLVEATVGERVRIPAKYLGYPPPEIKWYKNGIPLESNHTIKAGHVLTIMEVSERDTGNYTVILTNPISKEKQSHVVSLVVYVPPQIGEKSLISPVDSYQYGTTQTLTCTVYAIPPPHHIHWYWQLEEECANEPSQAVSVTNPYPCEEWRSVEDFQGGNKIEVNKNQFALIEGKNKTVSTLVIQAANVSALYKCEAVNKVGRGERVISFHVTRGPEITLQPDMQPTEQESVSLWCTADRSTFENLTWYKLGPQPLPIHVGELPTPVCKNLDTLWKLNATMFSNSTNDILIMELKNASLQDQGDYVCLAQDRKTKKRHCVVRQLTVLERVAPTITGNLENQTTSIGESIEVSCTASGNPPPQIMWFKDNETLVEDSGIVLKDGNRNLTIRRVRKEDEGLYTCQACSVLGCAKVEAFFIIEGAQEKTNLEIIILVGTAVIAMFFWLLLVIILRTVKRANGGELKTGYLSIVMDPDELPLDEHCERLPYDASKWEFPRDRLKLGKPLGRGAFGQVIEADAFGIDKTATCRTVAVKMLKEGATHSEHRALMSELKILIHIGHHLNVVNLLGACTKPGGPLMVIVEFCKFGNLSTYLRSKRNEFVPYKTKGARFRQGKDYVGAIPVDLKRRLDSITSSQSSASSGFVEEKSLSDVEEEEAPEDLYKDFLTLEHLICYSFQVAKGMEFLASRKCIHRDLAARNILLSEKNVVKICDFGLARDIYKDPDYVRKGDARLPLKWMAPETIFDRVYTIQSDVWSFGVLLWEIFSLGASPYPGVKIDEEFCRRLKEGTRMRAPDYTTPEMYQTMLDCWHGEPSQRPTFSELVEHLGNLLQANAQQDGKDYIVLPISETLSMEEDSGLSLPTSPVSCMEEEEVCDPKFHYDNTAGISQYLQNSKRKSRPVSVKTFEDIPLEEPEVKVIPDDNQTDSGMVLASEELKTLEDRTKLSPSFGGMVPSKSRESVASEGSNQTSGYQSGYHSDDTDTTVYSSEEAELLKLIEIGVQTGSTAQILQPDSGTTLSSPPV
# cGMP-inhibited 3',5'-cyclic phosphodiesterase 3A, sequence (Q14432 whole entry): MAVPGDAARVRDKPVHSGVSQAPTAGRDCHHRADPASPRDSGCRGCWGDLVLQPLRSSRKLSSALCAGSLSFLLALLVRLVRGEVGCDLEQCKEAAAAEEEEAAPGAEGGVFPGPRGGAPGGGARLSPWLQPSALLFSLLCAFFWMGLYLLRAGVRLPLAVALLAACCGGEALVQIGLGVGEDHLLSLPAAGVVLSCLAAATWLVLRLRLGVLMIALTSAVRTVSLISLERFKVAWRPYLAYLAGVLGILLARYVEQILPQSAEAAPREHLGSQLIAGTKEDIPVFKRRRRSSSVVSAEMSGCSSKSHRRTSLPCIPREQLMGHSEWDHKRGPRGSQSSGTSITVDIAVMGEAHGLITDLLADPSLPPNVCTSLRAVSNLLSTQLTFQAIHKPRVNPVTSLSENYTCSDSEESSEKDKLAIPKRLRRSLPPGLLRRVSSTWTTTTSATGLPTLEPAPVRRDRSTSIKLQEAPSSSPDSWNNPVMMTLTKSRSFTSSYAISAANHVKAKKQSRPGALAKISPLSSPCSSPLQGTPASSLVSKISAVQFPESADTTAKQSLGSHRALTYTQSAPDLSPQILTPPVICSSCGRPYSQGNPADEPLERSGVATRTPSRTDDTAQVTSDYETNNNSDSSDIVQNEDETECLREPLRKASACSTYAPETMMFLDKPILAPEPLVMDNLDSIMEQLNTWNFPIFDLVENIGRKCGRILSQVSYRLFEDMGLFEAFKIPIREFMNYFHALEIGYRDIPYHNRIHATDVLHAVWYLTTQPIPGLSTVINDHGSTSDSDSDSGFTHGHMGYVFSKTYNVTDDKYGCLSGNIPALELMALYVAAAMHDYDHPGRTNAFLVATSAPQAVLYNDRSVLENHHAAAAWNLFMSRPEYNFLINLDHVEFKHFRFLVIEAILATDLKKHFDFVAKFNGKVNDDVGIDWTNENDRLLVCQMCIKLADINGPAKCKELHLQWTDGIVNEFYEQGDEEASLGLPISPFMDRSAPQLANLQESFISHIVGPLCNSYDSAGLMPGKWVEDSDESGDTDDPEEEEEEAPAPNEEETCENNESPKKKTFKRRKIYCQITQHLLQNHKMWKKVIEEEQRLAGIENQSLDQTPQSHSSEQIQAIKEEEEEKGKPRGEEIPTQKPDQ
SMILES,AC50 [1] [µM],AC50 [2] [µM],AC50 [3] [µM],AC50 [4] [µM]
N#Cc1ccc(Oc2ccc3c(c2)COB3O)cc1 [CRISABOROLE],4.32,> 30,> 30,> 30
CC(COc1ccccc1)NC(C)C(O)c1ccc(O)cc1 (stereo not given) [ISOXSUPRINE],1.04,> 30,5.55,
CC[N+](C)(CC)CCOC(=O)C(O)(c1ccccc1)C1CCCCC1 (stereo not given) [OXYPHENONIUM],> 30,> 30,> 30,
C[C@@H]1C[C@H]2[C@@H]3C[C@H](F)C4=CC(=O)C=C[C@]4(C)[C@H]3[C@@H](O)C[C@]2(C)[C@@]1(O)C(=O)CO [PARAMETHASONE],> 30,> 30,> 30,
CCC[C@H](N[C@@H](C)C(=O)N1[C@H](C(=O)O)C[C@@H]2CCCC[C@@H]21)C(=O)OCC [PERINDOPRIL],> 30,> 30,> 30,
CC1(C)S[C@@H]2[C@H](/N=C/N3CCCCCC3)C(=O)N2[C@H]1C(=O)O [AMDINOCILLIN],> 30,> 30,> 30,
CC1(CCN2CCCCC2)C(=O)CCc2ccccc21 (stereo not given) [NEPINALONE],> 30,> 30,> 30,
CC(C)(C)NC(=O)N[C@H](C(=O)N1C[C@H]2[C@@H]([C@H]1C(=O)NC(CC1CCC1)C(=O)C(N)=O)C2(C)C)C(C)(C)C (stereo not given in full) [BOCEPREVIR],> 30,> 30,> 30,
Cc1ncc2c(c1O)COC2c1ccc(Cl)cc1 (stereo not given) [CICLETANINE],> 30,> 30,> 30,
Cc1ccc(S(=O)(=O)NC(=O)NC2CCCCC2)cc1 [GLYCYCLAMIDE],> 30,> 30,> 30,
CC(=O)O[C@H]1Cc2ccccc2N(C(N)=O)c2ccccc21 [ESLICARBAZEPINE ACETATE],> 30,> 30,> 30,
CCCn1cnc2c1c(=O)n(CCCCC(C)=O)c(=O)n2C [PROPENTOFYLLINE],> 30,> 30,> 30,
CC(=O)OCC(=O)[C@@]1(O)CC[C@H]2[C@@H]3CCC4=CC(=O)CC[C@]4(C)[C@H]3[C@@H](O)C[C@@]21C [HYDROCORTISONE ACETATE],> 30,> 30,> 30,
O=C(O)[C@@H]1C[C@@H](O)CN1,> 30,> 30,> 30,
N[C@@H](Cc1ccccc1)C(=O)O [PHENYLALANINE],> 30,> 30,> 30,
CC(=O)[C@]1(N)Cc2c(O)c3c(c(O)c2[C@@H](O[C@H]2C[C@H](O)[C@H](O)CO2)C1)C(=O)c1ccccc1C3=O [AMRUBICIN],> 3,> 30,> 30,
CN1CCCN(C(c2ccccc2)c2ccc(Cl)cc2)CC1 (stereo not given) [HOMOCHLORCYCLIZINE],2.89,> 30,2.98,
Cc1cc2c(cc1S(N)(=O)=O)S(=O)(=O)CCC2,> 30,> 30,> 30,
